Our source for the IC50 values is US8883782B2, “Spiro-tetracyclic ring compounds as beta-secretase modulators and methods of use” (Amgen Inc., priority 2010, dated 2014).

In assay [1] the target is Beta Secretase enzyme (BACE) (Homo sapiens, UniProt P56817). Nature of the assay: In vitro enzymatic BACE FRET (fluorescence resonance energy transfer) assay. The class given is biochemical. Particulars: average IC50, enzyme assay; read-out: BACE 1 FRET assay. The procedure, abridged: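 A peptide bearing a fluorophore and quencher across the cleavage site serves as substrate at 50 nM. Reactions proceed one hour in acidic acetate buffer (0.05 M, pH 4.2) containing 10% DMSO final and 100 uM genapol, then are terminated with Tris and read fluorimetrically.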

Assay [2] relates to Aβ40 in conditioned medium of cells stably expressing Amyloid Precursor Protein (APP). Description: In vitro BACE cell-based assay (Aβ40 in conditioned medium, sandwich ELISA). The note with it: Homo sapiens, HEK293, average IC50, HEK cells; read-out: HEK cell assay. The procedure, abridged:
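Conditioned medium from stably APP-expressing cells treated with compound dose series is assayed for Aβ40 by sandwich ELISA with time-resolved fluorescence detection. IC50 is calculated from percent inhibition of Aβ40 against compound concentration.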
(In general: In an ELISA, binding on a coated surface is turned into a signal by an enzyme label.)

Beta Secretase enzyme (BACE), sequence (P56817 46-501, species assumed): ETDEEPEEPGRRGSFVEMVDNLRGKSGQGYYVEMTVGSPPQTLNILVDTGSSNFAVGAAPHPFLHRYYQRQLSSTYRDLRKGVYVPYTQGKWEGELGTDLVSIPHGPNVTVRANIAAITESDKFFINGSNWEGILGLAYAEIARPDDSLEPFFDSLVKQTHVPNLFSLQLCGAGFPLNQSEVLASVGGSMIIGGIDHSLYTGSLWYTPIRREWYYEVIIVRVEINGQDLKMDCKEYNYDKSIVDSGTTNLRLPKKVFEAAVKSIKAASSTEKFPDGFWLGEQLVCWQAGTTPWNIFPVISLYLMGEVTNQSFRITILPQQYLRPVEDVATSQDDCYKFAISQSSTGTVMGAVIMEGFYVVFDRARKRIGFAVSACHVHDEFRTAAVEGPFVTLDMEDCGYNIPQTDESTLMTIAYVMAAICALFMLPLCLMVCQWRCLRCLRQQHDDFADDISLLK

For the molecule `NC1=N[C@@]2(CO1)c1cc(-c3cccnc3F)ccc1Oc1c2cc(N2CCC(F)(F)C2)nc1F` [Example 918, (S)-3-(3,3-difluoropyrrolidin-1-yl)-1-fluoro-7-(2-fluoropyridin-3-yl)-5′-H-spiro[chromeno[2,3-c]pyridine-5,4′-oxazol]-2′-amine], the IC50 in assay [1] was found to be 0.2 nM; in assay [2], 4 nM.
`N#Cc1cccc(-c2ccc3c(c2)[C@@]2(COC(N)=N2)c2cc(N4CC[C@@H](F)C4)nc(F)c2O3)c1` [Example 919, 3-((5S)-2′-amino-1-fluoro-3-((3R)-3-fluoro-1-pyrrolidinyl)spiro[chromeno[2,3-c]pyridine-5,4′-[1,3]oxazol]-7-yl)benzonitrile]: the IC50 in assay [1] came to 0.4 nM; in assay [2] it was 6 nM.
Turning to `N#Cc1cccc(-c2ccc3c(c2)[C@@]2(COC(N)=N2)c2cc(N4CCC(F)(F)C4)nc(F)c2O3)c1` [Example 920, 3-((5S)-2′-amino-3-(3,3-difluoro-1-pyrrolidinyl)-1-fluorospiro[chromeno[2,3-c]pyridine-5,4′-[1,3]oxazol]-7-yl)benzonitrile], the IC50 in assay [1] came to 0.2 nM; in assay [2], 12 nM.
Take `NC1=N[C@@]2(CO1)c1cc(-c3cncc(F)c3)ccc1Oc1c2cc(N2CC[C@@H](F)C2)nc1F` [Example 921, (5S)-1-fluoro-7-(5-fluoro-3-pyridinyl)-3-((3R)-3-fluoro-1-pyrrolidinyl)spiro[chromeno[2,3-c]pyridine-5,4′-[1,3]oxazol]-2′-amine]: the IC50 was determined as 0.5 nM in assay [1] and 6 nM in assay [2].
`N#Cc1cccc(-c2ccc3c(c2)[C@@]2(COC(N)=N2)c2cc(N4CCC(F)(F)CC4)nc(F)c2O3)c1` [Example 923, 3-((5S)-2′-amino-3-(4,4-difluoro-1-piperidinyl)-1-fluorospiro[chromeno[2,3-c]pyridine-5,4′-[1,3]oxazol]-7-yl)benzonitrile]: the values for the IC50 in assay [1] and in assay [2] were 0.3 nM and 32 nM, respectively.
As to `N#Cc1cccc(-c2ccc3c(c2)[C@@]2(COC(N)=N2)c2cc(N4CC[C@H](F)C4)nc(F)c2O3)c1` [Example 924, 3-((5S)-2′-amino-1-fluoro-3-((3S)-3-fluoro-1-pyrrolidinyl)spiro[chromeno[2,3-c]pyridine-5,4′-[1,3]oxazol]-7-yl)benzonitrile], the results for the IC50 in assay [1] and in assay [2] were 0.5 nM and 18 nM, respectively.
For `CC#Cc1cncc(-c2ccc3c(c2)[C@@]2(COC(N)=N2)c2cc(Cl)nc(N4CCC(F)(F)C4)c2O3)c1` [Example 925, (5S)-3-chloro-1-(3,3-difluoro-1-pyrrolidinyl)-7-(5-(1-propyn-1-yl)-3-pyridinyl)spiro[chromeno[2,3-c]pyridine-5,4′-[1,3]oxazol]-2′-amine], in that order: 24.6 nM and 547 nM.
As to `NC1=N[C@@]2(CO1)c1cc(-c3cncc(F)c3)ccc1Oc1c2cc(N2CC[C@H](F)C2)nc1F` [Example 926, (5S)-1-fluoro-7-(5-fluoro-3-pyridinyl)-3-((3S)-3-fluoro-1-pyrrolidinyl)spiro[chromeno[2,3-c]pyridine-5,4′-[1,3]oxazol]-2′-amine], the results for the IC50 in assay [1] and in assay [2] were 0.3 nM and 8 nM, respectively.
`NC1=N[C@@]2(CS1)c1cc(-c3cccnc3F)ccc1Oc1cnc(N3CC[C@@H](F)C3)cc12` [Example 929, (5S)-7-(2-fluoro-3-pyridinyl)-3-((3R)-3-fluoro-1-pyrrolidinyl)spiro[chromeno[2,3-c]pyridine-5,4′-[1,3]thiazol]-2′-amine]: the values for the IC50 in assay [1] and in assay [2] were 0.3 nM and 3 nM, respectively.
For `NC1=N[C@@]2(CS1)c1cc(-c3cccnc3F)ccc1Oc1cnc(C3CCOCC3)cc12` [Example 930, (5S)-7-(2-fluoro-3-pyridinyl)-3-(tetrahydro-2H-pyran-4-yl)spiro[chromeno[2,3-c]pyridine-5,4′-[1,3]thiazol]-2′-amine], in that order: 4 nM and 57 nM.
`NC1=N[C@@]2(CS1)c1cc(-c3cccnc3F)ccc1Oc1cnc([C@@H]3CCCOC3)cc12` [Example 931, (5S)-7-(2-fluoro-3-pyridinyl)-3-((3S)-tetrahydro-2H-pyran-3-yl)spiro[chromeno[2,3-c]pyridine-5,4′-[1,3]thiazol]-2′-amine]: the IC50 in assay [1] amounted to 21.6 nM; in assay [2], 347 nM.
Regarding `NC1=N[C@@]2(CS1)c1cc(-c3cccnc3F)ccc1Oc1cnc([C@H]3CCCOC3)cc12` [Example 932, (5S)-7-(2-fluoro-3-pyridinyl)-3-((3R)-tetrahydro-2H-pyran-3-yl)spiro[chromeno[2,3-c]pyridine-5,4′-[1,3]thiazol]-2′-amine], the IC50 stood at 16.2 nM in assay [1] and 208 nM in assay [2].
On to `NC1=N[C@@]2(CS1)c1cc(-c3cccnc3F)ccc1Oc1cnc(N3CCC(F)(F)CC3)cc12` [Example 933, (5S)-3-(4,4-difluoro-1-piperidinyl)-7-(2-fluoro-3-pyridinyl)spiro[chromeno[2,3-c]pyridine-5,4′-[1,3]thiazol]-2′-amine], for which the figures for the IC50 in assay [1] and in assay [2] were 0.5 nM and 33 nM, respectively.
In the same order, the values of `Cc1cc(-c2cc3c(cn2)Oc2ccc(-c4cccnc4F)cc2[C@@]32CSC(N)=N2)ccn1` [Example 934, (5S)-7-(2-fluoro-3-pyridinyl)-3-(2-methyl-4-pyridinyl)spiro[chromeno[2,3-c]pyridine-5,4′-[1,3]thiazol]-2′-amine] are 1 nM and 5 nM.
Consider `NC1=N[C@@]2(CO1)c1cc(-c3cnccn3)ccc1Oc1c(F)cc(C3CCOCC3)cc12` [Example 935, (4S)-4′-fluoro-7′-(2-pyrazinyl)-2′-(tetrahydro-2H-pyran-4-yl)spiro[1,3-oxazole-4,9′-xanthen]-2-amine], for which the IC50 in assay [1] is 6.6 nM; in assay [2] it was 82 nM.
In the same order, the values of `CC#Cc1cncc(-c2ccc3c(c2)[C@@]2(COC(N)=N2)c2cc(-c4ncccn4)ncc2O3)c1` [Example 936, (5S)-7-(5-(1-propyn-1-yl)-3-pyridinyl)-3-(2-pyrimidinyl)spiro[chromeno[2,3-c]pyridine-5,4′-[1,3]oxazol]-2′-amine] are 3 nM and 28 nM.
In the same order, the values of `COc1cncc(-c2ccc3c(c2)[C@@]2(COC(N)=N2)c2cc(C4CCOCC4)cc(F)c2O3)c1` [Example 937, (4S)-4′-fluoro-7′-(5-methoxy-3-pyridinyl)-2′-(tetrahydro-2H-pyran-4-yl)spiro[1,3-oxazole-4,9′-xanthen]-2-amine] are 1.7 nM and 28 nM.
With `COc1ccc2c(c1)[C@@]1(COC(N)=N1)c1cc(C3(O)CCOCC3)cc(F)c1O2` [Example 938, 4-((4S)-2-amino-4′-fluoro-7′-methoxyspiro[1,3-oxazole-4,9′-xanthen]-2′-yl)tetrahydro-2H-pyran-4-ol], the IC50 in assay [1] amounted to 4430 nM; in assay [2], 3850 nM.
In the same order, the values of `COc1ccc2c(c1)[C@@]1(COC(N)=N1)c1cc(C3(F)CCOCC3)cc(F)c1O2` [Example 939, (4S)-4′-fluoro-2′-(4-fluorotetrahydro-2H-pyran-4-yl)-7′-methoxyspiro[1,3-oxazole-4,9′-xanthen]-2-amine] are 1710 nM and 3560 nM.
`Cc1ccc(-c2cnc3c(c2)[C@]2(CSC(N)=N2)c2cc(C#CC4(C)COC4)ccc2O3)cn1` [Example 940, (5S)-7-((3-methyl-3-oxetanyl)ethynyl)-3-(6-methyl-3-pyridinyl)spiro[chromeno[2,3-b]pyridine-5,4′-[1,3]thiazol]-2′-amine]: the IC50 in assay [1] was 5.4 nM; in assay [2], 60 nM.
As for `COc1ccc(-c2cnc3c(c2)[C@]2(CSC(N)=N2)c2cc(C#CC4(C)COC4)ccc2O3)cn1` [Example 941, (5S)-3-(6-methoxy-3-pyridinyl)-7-((3-methyl-3-oxetanyl)ethynyl)spiro[chromeno[2,3-b]pyridine-5,4′-[1,3]thiazol]-2′-amine], the IC50 in assay [1] was determined as 3.8 nM; in assay [2], 97 nM.
In the same order, the values of `CC#Cc1cncc(-c2ccc3c(c2)[C@@]2(COC(N)=N2)c2cc(C#CC4(C)COC4)cnc2O3)c1` [Example 943, (5S)-3-((3-methyl-3-oxetanyl)ethynyl)-7-(5-(1-propyn-1-yl)-3-pyridinyl)spiro[chromeno[2,3-b]pyridine-5,4′-[1,3]oxazol]-2′-amine] are 0.7 nM and 1 nM.
With `CC#Cc1cncc(-c2ccc3c(c2)[C@@]2(COC(N)=N2)c2cc(-c4cnn(C)c4)cnc2O3)c1` [Example 944, (5S)-3-(1-methyl-1H-pyrazol-4-yl)-7-(5-(1-propyn-1-yl)-3-pyridinyl)spiro[chromeno[2,3-b]pyridine-5,4′-[1,3]oxazol]-2′-amine], the IC50 turned out to be 0.5 nM in assay [1] and 1 nM in assay [2].
Take `CC#Cc1cncc(-c2ccc3c(c2)[C@@]2(COC(N)=N2)c2cc(C#CC(C)(C)O)cnc2O3)c1` [Example 945, 4-((5S)-2′-amino-7-(5-(1-propyn-1-yl)-3-pyridinyl)spiro[chromeno[2,3-b]pyridine-5,4′-[1,3]oxazol]-3-yl)-2-methyl-3-butyn-2-ol]: the IC50 in assay [1] was 0.8 nM; in assay [2], 2 nM.
As for `CC#Cc1cncc(-c2ccc3c(c2)[C@@]2(COC(N)=N2)c2cc(C4=CCOCC4)cc(F)c2O3)c1` [Example 946, (4S)-2′-(3,6-dihydro-2H-pyran-4-yl)-4′-fluoro-7′-(5-(1-propyn-1-yl)-3-pyridinyl)spiro[1,3-oxazole-4,9′-xanthen]-2-amine], the IC50 in assay [1] was found to be 0.3 nM; in assay [2], 4 nM.
For the molecule `CC#Cc1cncc(-c2ccc3c(c2)[C@@]2(COC(N)=N2)c2cc(OCC(C)(C)C#N)cc(F)c2O3)c1` [Example 948, 3-(((4S)-2-amino-4′-fluoro-7′-(5-(1-propyn-1-yl)-3-pyridinyl)spiro[1,3-oxazole-4,9′-xanthen]-2′-yl)oxy)-2,2-dimethylpropanenitrile], the IC50 amounted to 0.4 nM in assay [1] and 4 nM in assay [2].
